Test results: patent US9549967B2, “Regulation of sodium channels by PLUNC proteins” (The University of North Carolina at Chapel Hill, priority 2009, dated 2017)

Assays:
ENaC [1] = biological target: T1, ENaC (Homo sapiens, UniProt P37088+P51168+P51170); assay: Transepithelial voltage under thin film conditions in human bronchial epithelial cultures (microelectrode); type: cell-based
T1 construct: endogenous in cells; host or cells: primary human bronchial epithelial cultures
T1 sequence (P37088 1-669): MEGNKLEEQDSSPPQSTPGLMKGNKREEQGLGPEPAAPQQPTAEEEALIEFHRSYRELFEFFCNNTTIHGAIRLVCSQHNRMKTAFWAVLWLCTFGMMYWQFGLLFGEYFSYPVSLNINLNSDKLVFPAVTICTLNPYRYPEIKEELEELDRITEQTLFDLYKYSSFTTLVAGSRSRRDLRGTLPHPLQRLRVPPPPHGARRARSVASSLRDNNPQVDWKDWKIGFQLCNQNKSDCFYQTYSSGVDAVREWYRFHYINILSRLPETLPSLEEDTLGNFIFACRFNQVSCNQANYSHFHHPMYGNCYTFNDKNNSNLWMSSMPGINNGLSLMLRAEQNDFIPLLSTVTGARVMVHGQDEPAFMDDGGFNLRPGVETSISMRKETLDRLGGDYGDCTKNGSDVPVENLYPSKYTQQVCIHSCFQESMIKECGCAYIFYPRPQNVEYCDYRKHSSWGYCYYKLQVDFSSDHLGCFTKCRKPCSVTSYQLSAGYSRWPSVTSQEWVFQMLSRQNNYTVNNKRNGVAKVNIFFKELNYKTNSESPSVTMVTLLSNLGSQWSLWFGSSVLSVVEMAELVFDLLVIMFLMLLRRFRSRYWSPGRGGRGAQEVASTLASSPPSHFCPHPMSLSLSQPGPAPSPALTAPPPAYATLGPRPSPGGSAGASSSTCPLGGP
T1 sequence (P51168 1-640): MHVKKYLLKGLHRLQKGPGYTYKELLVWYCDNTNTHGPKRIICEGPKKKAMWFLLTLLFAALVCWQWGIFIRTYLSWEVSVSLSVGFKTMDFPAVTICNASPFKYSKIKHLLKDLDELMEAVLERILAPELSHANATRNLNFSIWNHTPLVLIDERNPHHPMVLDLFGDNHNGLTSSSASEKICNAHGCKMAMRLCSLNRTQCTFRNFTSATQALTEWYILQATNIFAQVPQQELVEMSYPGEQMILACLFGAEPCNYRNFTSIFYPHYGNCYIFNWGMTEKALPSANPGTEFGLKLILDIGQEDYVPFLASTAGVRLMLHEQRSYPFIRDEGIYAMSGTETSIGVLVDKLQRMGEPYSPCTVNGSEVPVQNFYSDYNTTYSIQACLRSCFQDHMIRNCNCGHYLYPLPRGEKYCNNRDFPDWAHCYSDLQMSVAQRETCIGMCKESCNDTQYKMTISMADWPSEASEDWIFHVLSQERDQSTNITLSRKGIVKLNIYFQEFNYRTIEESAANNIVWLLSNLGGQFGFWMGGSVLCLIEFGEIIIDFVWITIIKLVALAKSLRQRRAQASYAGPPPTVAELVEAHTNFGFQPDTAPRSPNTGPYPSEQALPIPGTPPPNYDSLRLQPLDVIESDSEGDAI
T1 sequence (P51170 1-649): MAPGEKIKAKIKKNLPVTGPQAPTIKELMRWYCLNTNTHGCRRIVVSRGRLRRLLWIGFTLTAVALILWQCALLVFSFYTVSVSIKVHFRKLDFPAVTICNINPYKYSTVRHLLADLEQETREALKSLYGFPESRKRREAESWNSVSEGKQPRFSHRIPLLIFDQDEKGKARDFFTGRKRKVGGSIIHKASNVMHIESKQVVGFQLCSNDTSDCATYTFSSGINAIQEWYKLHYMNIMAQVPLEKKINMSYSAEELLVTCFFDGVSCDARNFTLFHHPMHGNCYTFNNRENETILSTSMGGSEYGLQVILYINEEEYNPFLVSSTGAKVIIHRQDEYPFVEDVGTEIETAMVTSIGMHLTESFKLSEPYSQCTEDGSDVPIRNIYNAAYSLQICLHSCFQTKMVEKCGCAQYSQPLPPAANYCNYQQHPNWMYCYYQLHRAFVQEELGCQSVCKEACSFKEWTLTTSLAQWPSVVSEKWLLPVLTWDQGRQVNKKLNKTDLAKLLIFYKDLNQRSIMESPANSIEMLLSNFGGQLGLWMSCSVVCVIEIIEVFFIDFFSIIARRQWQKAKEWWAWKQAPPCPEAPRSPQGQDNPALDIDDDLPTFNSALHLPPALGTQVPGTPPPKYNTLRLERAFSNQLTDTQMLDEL
Excerpt: (§1) Tissue procurement and cell culture: Cells were harvested by enzymatic digestion from human bronchial tissue as previously described under a protocol approved by the UNC School of Medicine IRB (Tarran et al., J. Gen. Physiol. 127:591 (2006)). Human excess donor lungs and excised recipient lungs were obtained at the time of lung transplantation from portions of main stem or […] bronchi and cells were harvested by enzymatic digestion. All preparations were maintained at an air-liquid interface in a modified bronchial epithelial medium and used 2-5 weeks after seeding on 12 mm T-Clear inserts (Corning Costar) coated with human placental type VI collagen (Sigma). Phosphate buffered saline (PBS) was used for washing human bronchial epithelial culture mucosal surfaces.
(§2) Microelectrode studies. A single-barreled potential difference-sensing electrode was placed in the airway surface liquid by micromanipulator and used in conjunction with a macroelectrode in the serosal solution to measure transepithelial voltage using a voltmeter (World Precision Instruments). […] Transepithelial resistance was routinely measured using the EVOM system (WPI) as previously described (Tarran et al., J. Gen. Physiol. 127:591 (2006)).

ENaC [2] = biological target: T1, ENaC; assay: Transepithelial electrical resistance of human bronchial epithelial cultures (EVOM); type: cell-based; details: washed cultures; 50 ng/ml SPLUNC1 for 30 min or amiloride; effects not additive
Excerpt: as §1, §2

CFTR = biological target: T2, CFTR (Homo sapiens, UniProt P13569); assay: CFTR activity in Xenopus oocytes co-expressing CFTR and β2 adrenergic receptor; type: cell-based; details: 10 μM isoproterenol, β2AR co-expressed
T2 construct: expressed in transfected cells; host or cells: Xenopus laevis oocytes
T2 sequence (P13569 whole entry, species assumed): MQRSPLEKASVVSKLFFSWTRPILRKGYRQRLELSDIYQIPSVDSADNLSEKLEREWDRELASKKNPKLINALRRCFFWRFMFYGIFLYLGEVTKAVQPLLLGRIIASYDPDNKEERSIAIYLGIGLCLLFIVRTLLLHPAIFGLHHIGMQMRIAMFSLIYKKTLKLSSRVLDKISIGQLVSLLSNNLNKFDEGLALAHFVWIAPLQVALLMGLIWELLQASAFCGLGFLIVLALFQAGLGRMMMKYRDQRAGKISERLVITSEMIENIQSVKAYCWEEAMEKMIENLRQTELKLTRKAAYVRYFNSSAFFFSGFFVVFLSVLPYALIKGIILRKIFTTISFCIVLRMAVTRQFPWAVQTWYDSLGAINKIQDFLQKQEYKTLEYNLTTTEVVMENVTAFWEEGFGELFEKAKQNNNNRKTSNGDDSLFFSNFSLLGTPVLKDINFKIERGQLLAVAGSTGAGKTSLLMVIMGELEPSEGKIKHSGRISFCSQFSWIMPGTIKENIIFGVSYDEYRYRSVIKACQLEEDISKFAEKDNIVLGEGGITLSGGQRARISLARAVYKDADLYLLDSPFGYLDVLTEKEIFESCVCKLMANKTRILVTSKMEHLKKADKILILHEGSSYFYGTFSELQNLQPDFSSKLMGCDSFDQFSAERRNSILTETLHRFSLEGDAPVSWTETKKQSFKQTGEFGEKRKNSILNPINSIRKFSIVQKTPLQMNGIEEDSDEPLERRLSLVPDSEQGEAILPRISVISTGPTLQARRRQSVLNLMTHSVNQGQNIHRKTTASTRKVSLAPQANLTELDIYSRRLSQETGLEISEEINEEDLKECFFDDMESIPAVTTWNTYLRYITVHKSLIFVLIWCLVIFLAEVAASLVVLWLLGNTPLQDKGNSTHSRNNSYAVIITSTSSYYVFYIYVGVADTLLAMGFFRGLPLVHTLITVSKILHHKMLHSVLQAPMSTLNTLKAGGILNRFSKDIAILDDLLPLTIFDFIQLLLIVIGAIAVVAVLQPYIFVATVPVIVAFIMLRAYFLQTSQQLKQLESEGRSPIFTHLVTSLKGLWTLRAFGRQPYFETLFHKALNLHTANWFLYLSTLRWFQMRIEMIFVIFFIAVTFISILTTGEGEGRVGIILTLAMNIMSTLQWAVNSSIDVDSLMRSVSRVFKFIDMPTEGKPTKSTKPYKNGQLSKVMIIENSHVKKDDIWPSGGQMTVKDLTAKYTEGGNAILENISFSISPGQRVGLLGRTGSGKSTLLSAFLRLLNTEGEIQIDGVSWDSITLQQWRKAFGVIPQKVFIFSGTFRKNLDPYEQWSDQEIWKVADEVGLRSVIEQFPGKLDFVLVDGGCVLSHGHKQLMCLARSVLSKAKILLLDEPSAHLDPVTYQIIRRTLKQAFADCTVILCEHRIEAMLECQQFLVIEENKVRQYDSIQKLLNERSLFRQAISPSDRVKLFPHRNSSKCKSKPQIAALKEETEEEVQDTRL
Protocol: Oocyte studies. Xenopus laevis oocytes were harvested and injected as described (Donaldson, et al., J. Biol. Chem. 277:8338 (2002)). Defolliculated healthy stage V-VI oocytes were injected with 0.3 ng of cRNA of each ENaC subunit. Injected oocytes were kept in modified Barth's saline (in mM: 88 NaCl, 1 KCl, 2.4 NaHCO3, 0.3 Ca(NO3)2, 0.41 CaCl2, 0.82 MgSO4, and 15 HEPES, adjusted to pH 7.35 with Tris). Oocytes were studied 24 hr after injection using the two electrode voltage clamp technique as previously described (Donaldson, et al., J. Biol. Chem. 277:8338 (2002)). Oocytes were clamped at a holding potential of […]. The change in amiloride-sensitive whole cell current as an indicator of ENaC activity was determined by subtracting the corresponding current value measured in the presence of 10 μM amiloride from that measured before the application of amiloride.
In both cases, we co-expressed CFTR with the β2 adrenergic receptor (β2AR) which can be stimulated with isoproterenol to raise cAMP and stimulate CFTR (Uezono et al., Receptors Channels 1:233 (1993)).

serine proteases = assay: Endogenous protease activity (BGAR-MCA cleavage) on mucosal surfaces of human bronchial epithelial cultures; type: cell-based
Protocol: (§3) For cell-free assays, reactions were carried out in 50 μl Ringer in a 96 well plate format with 100 μM BGAR-MCA. To measure endogenous protease activity in human bronchial epithelial cultures, 30 μl Ringer with 100 μM BGAR-MCA were placed directly onto the mucosal surfaces of human bronchial epithelial cultures grown on 12 mm T-clear inserts and the cultures were assayed in 12 well plates.

trypsin = assay: Cell-free fluorogenic assay of BGAR-MCA cleavage by trypsin; type: biochemical; details: 2 U/ml aprotinin
Protocol: as §3

αENaC = biological target: T3, αENaC (Homo sapiens, UniProt P37088); assay: Texas red-SPLUNC1 binding assay on JME cells expressing yfp-αENaC; details: polarized JME cells
T3 construct: expressed in transfected cells; host or cells: JME nasal epithelial cells (passaged, no endogenous ENaC), lentiviral vector pQCXIN
T3 sequence (P37088 1-669): T1 sequence (P37088 1-669)
Protocol: JME cells were incubated with varying concentrations of Texas red-labeled SPLUNC1 for 30 min followed by a 5× wash with PBS. After this time images were acquired with a Nikon Ti-S inverted microscope and were quantified to obtain specific and non-specific binding using Image J. Data were then fitted with a Hill Plot to obtain the Kd.
JME nasal epithelial cells express functional ENaCs (Tong et al., Am. J. Physiol. Lung Cell. Mol. Physiol. 287:L928 (2004)). However, this attribute is lost after several passages. Thus, passaged JME cells that no longer expressed ENaC were stably infected with a lentivirus containing yfp-αENaC or an empty vector as a control and the presence or absence of αENaC was confirmed using an antibody that was constructed “in-house” that was directed against αENaC (FIG. 8).
Recombinant SPLUNC1 was labeled with Texas red according to the manufacturer's instructions (Pierce) and was freshly labeled on the day of each binding experiment. […] After this time yfp (514 nm excitation) and Texas red fluorescence (590 nm excitation) were imaged under a 60× water objective on a Nikon Ti-S inverted microscope equipped with an Orca CCD camera (Hamamatsu) switchable filter wheels (Ludl). Background fluorescence was subtracted from all images and the mean thresholded intensity was quantified to obtain specific and non-specific binding using Image J.

N=C(N)NC(=O)c1nc(Cl)c(N)nc1N [amiloride, reference compound]
reduction of the transepithelial voltage (ENaC [1]; n=12, FIG. 4 legend: 100 mM amiloride): 54% | increase of the transepithelial electrical resistance (ENaC [2]): ~33%

CC(C)NCC(O)c1ccc(O)c(O)c1 (centres unmarked) [isoproterenol, reference compound]
CFTR activation (CFTR): robustly activated

aprotinin [reference compound]
rate of inhibition of the transepithelial voltage (ENaC [1]; rSPLUNC1 vs aprotinin addition, effects not additive): identical rates | spontaneous BGAR-MCA cleavage on mucosal surfaces (serine proteases): inhibited | inhibition of trypsin activity (trypsin): ~100%

B1: Texas red-rSPLUNC1: recombinant SPLUNC1 labeled with Texas red (conjugate)
chain: QFGGLPVPLDQTLPLNVNPALPLSPTGLAGSLTNALSNGLLSGGLLGILENLPLLDILKPGGGTSGGLLGGLLGKVTSVIPGLNNIIDIKVTDPQLLELGLVQSPDGHRLYVTIPLGIKLQVNTPLVGASLLRLAVKLDITAEILAVRDKQERIHLVLGDCTHSPGSLQISLLDGLGPLPIQGLLDSLTGILNKVLPELVQGNVCPLVNEVLRGLDITLVHDIVNMLIHGLQFVIKV
modifications: left off: small tags and cut ends
Kd (αENaC; 30 min incubation, Hill fit): 0.055 µg/mL | specific (yfp-αENaC) binding vs non-specific (empty vector) binding (αENaC; binding isotherm): significantly greater and saturable
